Measurements reported in the NIST ThermoML archive (doi:10.1021/je060271a).
“And” between values parts separate entries of the source, which are not always exact repeats. Identical values can stand only once.

Conditions: Liquid, Vibrating tube method

CCCCCCC(=O)OCC(COC(=O)CCCCCC)(COC(=O)CCCCCC)COC(=O)CCCCCC [pentaerythritol tetraheptanoate]
Conditions	mass density
283.15 K, 2785.2 kPa	987.5 kg/m3
283.15 K, 4763 kPa	988.5 kg/m3
283.15 K, 4768.7 kPa	988.7 kg/m3
283.15 K, 5143.5 kPa	988.8 kg/m3
283.15 K, 5150.3 kPa	988.9 kg/m3
283.15 K, 5157.6 kPa	988.7 kg/m3
283.15 K, 5164.1 kPa	988.8 kg/m3
283.15 K, 5170.9 kPa	988.9 kg/m3
283.15 K, 5178.5 kPa	988.9 kg/m3
283.15 K, 5185.2 kPa	988.8 kg/m3
283.15 K, 5558.2 kPa	989.1 kg/m3
283.15 K, 5573.4 kPa	989.1 kg/m3
283.15 K, 5748.5 kPa	989.3 kg/m3
283.15 K, 5758 kPa	989.2 kg/m3
283.15 K, 5766.1 kPa	989.3 kg/m3
283.15 K, 9627.4 kPa	991.5 kg/m3
283.15 K, 9754 kPa	991.6 kg/m3
283.15 K, 9827.4 kPa	991.6 kg/m3
283.15 K, 15376 kPa	994.5 kg/m3
283.15 K, 15402 kPa	994.5 kg/m3
283.15 K, 15424 kPa	994.5 kg/m3
283.15 K, 15447 kPa	994.5 kg/m3
283.15 K, 15473 kPa	994.5 kg/m3
283.15 K, 15496 kPa	994.5 kg/m3
283.15 K, 15518 kPa	994.4 kg/m3
283.15 K, 15545 kPa	994.6 kg/m3
283.15 K, 16561 kPa	995.2 kg/m3
283.15 K, 16643 kPa	995.1 kg/m3
283.15 K, 16700 kPa	995.2 kg/m3
283.15 K, 17302 kPa	995.5 kg/m3
283.15 K, 17330 kPa	995.5 kg/m3
283.15 K, 17392 kPa	995.5 kg/m3
283.15 K, 17420 kPa	995.6 kg/m3
283.15 K, 19724 kPa	996.7 kg/m3
283.15 K, 24690 kPa	999.4 kg/m3
283.15 K, 24805 kPa	999.3 kg/m3
283.15 K, 25965 kPa	999.9 kg/m3
283.15 K, 26012 kPa	1000.1 kg/m3
283.15 K, 26052 kPa	1000.1 kg/m3
283.15 K, 26093 kPa	1000.1 kg/m3
283.15 K, 26133 kPa	1000.1 kg/m3
283.15 K, 26183 kPa	1000.1 kg/m3
283.15 K, 26224 kPa	1000.1 kg/m3
283.15 K, 26317 kPa	1000.1 kg/m3
283.15 K, 26361 kPa	1000.1 kg/m3
283.15 K, 26458 kPa	1000.2 kg/m3
283.15 K, 26749 kPa	1000.4 kg/m3
283.15 K, 26807 kPa	1000.4 kg/m3
283.15 K, 26833 kPa	1000.4 kg/m3
283.15 K, 26860 kPa	1000.5 kg/m3
283.15 K, 26892 kPa	1000.5 kg/m3
283.15 K, 26918 kPa	1000.5 kg/m3
283.15 K, 26978 kPa	1000.5 kg/m3
283.15 K, 27117 kPa	1000.7 kg/m3
283.15 K, 27150 kPa	1000.5 kg/m3
283.15 K, 27176 kPa	1000.7 kg/m3
283.15 K, 27209 kPa	1000.6 kg/m3
283.15 K, 27237 kPa	1000.6 kg/m3
283.15 K, 27264 kPa	1000.6 kg/m3
283.15 K, 27324 kPa	1000.7 kg/m3
283.15 K, 27352 kPa	1000.7 kg/m3
283.15 K, 27599 kPa	1000.8 kg/m3
283.15 K, 27618 kPa	1000.8 kg/m3
283.15 K, 27642 kPa	1000.9 kg/m3
283.15 K, 27661 kPa	1000.8 kg/m3
283.15 K, 27681 kPa	1000.9 kg/m3
283.15 K, 27896 kPa	1001.1 kg/m3
283.15 K, 27916 kPa	1001.1 kg/m3
283.15 K, 27936 kPa	1000.9 kg/m3
283.15 K, 27956 kPa	1001 kg/m3
283.15 K, 28022 kPa	1001 kg/m3
283.15 K, 30230 kPa	1002.1 kg/m3
283.15 K, 33971 kPa	1003.9 kg/m3
283.15 K, 34009 kPa	1004.1 kg/m3
283.15 K, 34041 kPa	1003.9 kg/m3
283.15 K, 34067 kPa	1004 kg/m3
283.15 K, 34100 kPa	1004.1 kg/m3
283.15 K, 34146 kPa	1004.3 kg/m3
283.15 K, 34179 kPa	1004 kg/m3
283.15 K, 34214 kPa	1004.2 kg/m3
283.15 K, 34255 kPa	1004.1 kg/m3
283.15 K, 34291 kPa	1004.1 kg/m3
283.15 K, 34334 kPa	1004.2 kg/m3 and 1004.1 kg/m3
283.15 K, 34346 kPa	1004.1 kg/m3
283.15 K, 34372 kPa	1004.2 kg/m3
283.15 K, 34412 kPa	1004.3 kg/m3
283.15 K, 34450 kPa	1004.2 kg/m3
283.15 K, 34481 kPa	1004.2 kg/m3
283.15 K, 34492 kPa	1004.2 kg/m3
283.15 K, 34503 kPa	1004.4 kg/m3
283.15 K, 34516 kPa	1004.2 kg/m3
283.15 K, 34528 kPa	1004.3 kg/m3
283.15 K, 34542 kPa	1004.4 kg/m3
283.15 K, 34553 kPa	1004.4 kg/m3
283.15 K, 34565 kPa	1004.4 kg/m3
283.15 K, 34574 kPa	1004.3 kg/m3
283.15 K, 34579 kPa	1004.3 kg/m3
283.15 K, 34594 kPa	1004.5 kg/m3
283.15 K, 34601 kPa	1004.3 kg/m3
283.15 K, 34603 kPa	1004.2 kg/m3
283.15 K, 34606 kPa	1004.3 kg/m3
303.14 K, 99.6 kPa	970.8 kg/m3
303.14 K, 99.8 kPa	970.7 kg/m3 and 970.8 kg/m3 and 970.9 kg/m3
303.14 K, 99.9 kPa	970.8 kg/m3 and 970.9 kg/m3 and 970.7 kg/m3
303.14 K, 100.1 kPa	970.7 kg/m3 and 970.6 kg/m3
303.14 K, 100.3 kPa	970.7 kg/m3
303.14 K, 100.6 kPa	970.8 kg/m3
303.14 K, 101.7 kPa	970.7 kg/m3
303.14 K, 103.8 kPa	970.7 kg/m3
303.14 K, 107.4 kPa	970.8 kg/m3
303.14 K, 118.5 kPa	970.8 kg/m3
303.14 K, 136.8 kPa	970.7 kg/m3
